# Results: US5516936A, “Inhibitors of kynureninase” (University of Georgia Research Foundation, Inc., priority 1993, dated 1996)
# “Also recorded” adds a separate entry of the source. Read-outs that look alike come from different tables or passages of the source.
# Tests used:
# kynureninase [1] = settings: Takeuchi et al. (1980); cited from earlier work
# bacterial kynureninase [2] = settings: Tanizawa and Soda (1979); cited from earlier work
# rat renal C-S lyase = settings: kidney slice methodology; cited from earlier work
# Kynureninase [3] = target: T1, Kynureninase (Pseudomonas fluorescens, UniProt P83788); experiment: Competitive inhibition of kynureninase by S-aryl cysteines and S-aryl cysteine sulfones; type: biochemical; settings: Table 1; competitive inhibition vs L-kynurenine, pH 7.8, 25° C.; footnote 1: 0.07 is an upper limit; read-out: Ki
# T1 construct: Bacterial kynureninase was prepared from cells of Pseudomonas fluorescens; endogenous in cells; partially purified by DEAE-cellulose and ammonium sulfate
# T1 sequence (P83788 1-416): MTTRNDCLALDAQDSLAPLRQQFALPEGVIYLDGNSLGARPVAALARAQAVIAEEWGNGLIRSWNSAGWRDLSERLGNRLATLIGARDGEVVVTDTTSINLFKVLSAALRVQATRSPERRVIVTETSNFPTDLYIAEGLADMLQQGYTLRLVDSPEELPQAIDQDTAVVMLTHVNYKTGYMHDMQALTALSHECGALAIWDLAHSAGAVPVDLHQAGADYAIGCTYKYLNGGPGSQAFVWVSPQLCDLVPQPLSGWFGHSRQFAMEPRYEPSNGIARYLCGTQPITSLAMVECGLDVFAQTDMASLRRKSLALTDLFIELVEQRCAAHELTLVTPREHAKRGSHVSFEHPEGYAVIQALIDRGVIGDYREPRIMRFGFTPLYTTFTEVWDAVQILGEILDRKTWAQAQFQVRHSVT
# Procedure: (§1) Bacterial kynureninase was prepared from cells of Pseudomonas fluorescens (ATCC 11250, for example) essentially as described by .Hayaishi and Stanier (1952) J. Biol. Chem. 195:735-740. Cells were grown on a minimal medium containing 0.1% L-tryptophan as the sole carbon and nitrogen source.
# (§2) From 100 1 of medium, grown for 18 h at 30° C. 230 g of wet cell paste was obtained. The cells were suspended in 1 of 0.01M potassiumphosphate, pH 7.0, and disrupted by 2 passages through a Manton-Gaulin homogenizer. After centrifugation of the cell extract for 1 h at 10000 g, the enzyme was partially purified by ion-exchange chromatography on DEAE-cellulose and ammonium sulfate precipitation.
# Kynureninase activity was measured at 25° C. by following the decrease in absorbance at 360 nm (ε=-4500M^-1 cm^-1). A typical assay mixture contained 0.4 mM L-kynurenine in 0.04M potassium phosphate, pH 7.8, containing 40 μM pyridoxal-5'-phosphate, at 25° C. The reactions of S-aryl cysteines and S-aryl cysteine sulfones with kynureninase were performed using a spectrophotometric coupled assay with lactate dehydrogenase and NADH, by monitoring a decrease in absorbance due to pyruvate formation. A typical assay mixture contained 30 μl lactate dehydrogenase solution (2 mg/ml), 0.1 mM NADH, 40 μM pyridoxal-5'-phosphate, 0.04M tris.HCl buffer, pH 7.8, with varying concentrations of the compounds. The competitive inhibition of these compounds was measured by variation of L-kynurenine concentrations at several fixed values of the inhibitor. Km and Vmax values were calculated by fitting of initial rate data to the Michaelis-Menten equation with ENZFITTER (Elsevier) on a Z-286 personal computer. KI values were determined from the equation:
# v=Vmax[S]/ (Km (1+[I]/Ki)+[S]
# bacterial kynureninase [4] = settings: Kishore (1984), cited from earlier work
# Kynureninase [5] = target: T1, Kynureninase; experiment: Inhibition of bacterial kynureninase by dihydrokynurenine; type: biochemical; settings: for inhibition of reaction with L-kynurenine (in words): bacterial kynureninase; for Ki value (comparison in words): compared between dihydrokynurenine diastereomers
# Procedure: As an extension of these mechanistic studies, the reactivities of dihydrokynurenine diastereomers were examined. […] This increased affinity of (αS,γS)-dihydrokynurenine is characteristic of mechanism-based, or "transition-state analogue" inhibitors.
# as §1, §2
# Inhibition of kynureninase by dihydrokynurenine was measured by including the potential inhibitor in the enzyme assay mixture (see Example 1 and Tanzawa and Soda (1979) supra) and determining the apparent Km for L-kynurenine (the preferred substrate of bacterial kynurenine) in the absence and presence of the potential inhibitor. Ki values were then calculated using the standard equation: […]
# Inhibition of kynureninase by the (αS,γR)- and (αS,γS)-diastereomers of dihydrokynurenine was examined and Ki 's were determined. […] The Ki value for the […] was lower than for the (αS,γR)-diastereomer.
# Kynureninase [6] = target: T1, Kynureninase; experiment: Reactivity of dihydrokynurenine and L-kynurenine with bacterial kynureninase; type: biochemical; settings: pH 8.0, 25°; for reactivity with kynureninase (in words): o-aminobenzaldehyde formation at 360 nm
# Procedure: as §1
# From 100 1 of medium, grown for 18 h at 30° C. […] The cells were suspended in 1 of 0.01M potassiumphosphate, pH 7.0, and disrupted by 2 passages through a Manton-Gaulin homogenizer. After centrifugation of the cell extract for 1 h at 10000 g, the enzyme was partially purified by ion-exchange chromatography on DEAE-cellulose and ammonium sulfate precipitation.
# The reactivity of the two dihydrokynurenines with kynureninase in 0.1M potassium phosphate buffer, pH 8.0, at 25° was examined. Reaction was followed by the appearance of o-aminobenzaldehyde, as determined spectrophotometrically by the increase in absorbance at 360 nm (See Tanizawa and Soda (1979) Biochem. (Tokyo) 86:1199-1209, which is incorporated by reference herein).
# rat liver kynureninase = target: T2, rat liver kynureninase (Rattus norvegicus, UniProt P70712); experiment: Inhibition of rat liver kynureninase (cysteine conjugate β-lyase activity with S-(2-benzothiazolyl)cysteine); type: biochemical; settings: S-(2-benzothiazolyl)cysteine as substrate
# T2 construct: host or cells: rat liver
# T2 sequence (P70712 1-464): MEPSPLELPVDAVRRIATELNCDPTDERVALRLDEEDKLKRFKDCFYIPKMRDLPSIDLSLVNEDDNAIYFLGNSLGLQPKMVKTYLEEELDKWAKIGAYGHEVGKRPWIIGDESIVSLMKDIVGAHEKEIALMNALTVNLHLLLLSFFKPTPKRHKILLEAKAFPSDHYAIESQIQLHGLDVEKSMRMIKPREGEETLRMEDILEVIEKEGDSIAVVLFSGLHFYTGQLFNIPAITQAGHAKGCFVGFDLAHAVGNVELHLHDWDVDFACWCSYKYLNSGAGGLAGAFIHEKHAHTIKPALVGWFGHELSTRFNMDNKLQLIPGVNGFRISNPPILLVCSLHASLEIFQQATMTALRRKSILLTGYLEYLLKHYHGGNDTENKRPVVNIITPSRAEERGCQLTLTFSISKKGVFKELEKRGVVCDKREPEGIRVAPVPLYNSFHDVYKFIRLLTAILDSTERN
# Procedure: Inhibition of mammalian kynureninase can be measured using several different assays for enzyme activity. Rat liver kynureninase is obtained from homogenization of rat liver, followed by precipitation with (NH4)2 SO4, as described by Stevens, J. L., J. Biol. Chem. (1985) 260:7945-7950, which is incorporated by reference herein. The activity of rat liver kynureninase was assessed by measurement of the cysteine conjugate β-lyase activity, as described by Stevens (supra), with S-(2-benzothiazolyl)cysteine, a nonphysiological chromophoric substrate. Inhibition of kynureninase by the dihydrokynurenine diastereomers was assessed with respect to reaction with that substrate.
# [7] = tested on: cystsine conjugate β-lyase; settings: cited from earlier work
# cystsine lyase = settings: cited from earlier work
structure (smiles),measurement,setting,value
Nc1ccccc1C(=O)O [anthranilic acid],inhibition of kynureninase (in words),kynureninase [1],inhibit the enzyme
same,inhibition of bacterial kynureninase (in words),bacterial kynureninase [2],inhibitors
"CC(=O)N[C@@H](CSc1ccc([N+](=O)[O-])c([N+](=O)[O-])c1)C(=O)O [N-acetyl-S-(3,4-dinitrophenyl)-L-cystsine]",inhibition of C-S lyase (in words),rat renal C-S lyase,inhibit
"N[C@@H](CSc1c([N+](=O)[O-])cccc1[N+](=O)[O-])C(=O)O [S-(2,6-dinitrophenyl)-L-cysteine]",inhibition of C-S lyase (in words),rat renal C-S lyase,inhibit
N[C@@H](CSc1ccccc1[N+](=O)[O-])C(=O)O [S-(2-nitrophenyl)-L-cysteine],inhibition of C-S lyase (in words),rat renal C-S lyase,inhibit
same,Ki,Kynureninase [3],100 µM
same,Ki,bacterial kynureninase [4],100 µM
same,inactivation of kynureninase (in words),bacterial kynureninase [4],inactivates kynureninase; also recorded: most efficient suicide substrate at low concentrations; also recorded: suicide inhibitor of kynureninase
same,reaction with kynureninase (in words),bacterial kynureninase [4],react with kynureninase to give pyruvate and ammonia
same,inactivation of kynureninase (in words),bacterial kynureninase [4]; listed as S-(2-nitrophenyl)-L-cystsine,inactivated kynureninase
"Nc1ccccc1[C@@H](O)C[C@H](N)C(=O)O [(αS,γS)-dihydrokynurenine, (αS,γS)-α,2-diamino-γ-hydroxybenzenebutanoic acid]",binding relative to L-kynurenine (in words),Kynureninase [5],binds about more tightly than does L-kynurenine
same,inhibition of reaction with L-kynurenine (in words),Kynureninase [5],competitive inhibitor of the enzyme
same,inhibition of reaction with L-kynurenine (in words),"Kynureninase [5]; listed as (αS,γS)-diastereomer",strongly inhibited; also recorded: competitive inhibitors
same,Ki value (comparison in words),Kynureninase [5],lower
same,reactivity with kynureninase (in words),Kynureninase [6],not a substrate for the kynureninase
same,reactivity with kynureninase (in words),"Kynureninase [6]; listed as (αS,γS) diastereomer",unreactive
same,reactivity with kynureninase (in words),"Kynureninase [6]; listed as (αS,γS)-diastereomer",No significant reaction
same,inhibition of rat liver kynureninase (in words),"rat liver kynureninase; listed as (αS,γS) diastereomer",stronger competitive inhibitor
same,inhibition of rat liver kynureninase (in words),"rat liver kynureninase; listed as (αS,δS)",inhibit the reaction of rat liver kynureninase
same,Ki,rat liver kynureninase; rat liver kynureninase,~690 µM
N[C@@H](CSCc1ccccc1)C(=O)O [S-benzyl-L-cysteine],β-lyase-mediated metabolism (in words),[7],cleaved to give pyruvate
O=Cc1ccccc1 [benzaldehyde],inhibition of bacterial kynureninase (in words),bacterial kynureninase [2],inhibitors
NO [H2 NOH],inhibition of cystsine lyase (in words),cystsine lyase,significantly inhibited
"CC(=O)N[C@@H](CSc1c([N+](=O)[O-])cccc1[N+](=O)[O-])C(=O)O [N-acetyl-S-(2,6-dinitrophenyl)-L-cysteine]",inhibition of C-S lyase (in words),rat renal C-S lyase,inhibit
N[C@@H](CSc1ccc([N+](=O)[O-])cc1)C(=O)O [S-(4-nitrophenyl)-L-cysteine],inhibition of C-S lyase (in words),rat renal C-S lyase,inhibit
"Nc1c(O)cccc1C(=O)O [3-hydroxyanthranilate, 3-hydroxyanthranilic acid]",inhibition of kynureninase (in words),kynureninase [1],inhibit the enzyme
O=Cc1ccccc1[N+](=O)[O-] [o-nitrobenzaldehyde],inhibition of bacterial kynureninase (in words),bacterial kynureninase [2],inhibitors
"Nc1ccccc1[C@H](O)C[C@H](N)C(=O)O [(αS,γR)-dihydrokynurenine, (αS;γR)-α,2-diamino-γ-hydroxybenzenebutanoic acid]",inhibition of reaction with L-kynurenine (in words),"Kynureninase [5]; listed as (αS,γR)-diastereomer",strongly inhibited; also recorded: competitive inhibitors
same,Ki value (comparison in words),Kynureninase [5],lower
same,Ki,Kynureninase [5]; competitive with respect to L-kynurenine,5 µM
same,rate of reaction relative to L-kynurenine,Kynureninase [6]; 0.1M potassium phosphate buffer,about 5%
same,reactivity with kynureninase (in words),Kynureninase [6],reacted slowly with kynureninase
same,reactivity with kynureninase (in words),"Kynureninase [6]; listed as (αS,γR)-Dihydrokynurenine",slow substrate
same,inhibition of rat liver kynureninase (in words),rat liver kynureninase,inhibit the reaction of rat liver kynureninase
NOCC(=O)O [aminooxyacetic acid],inhibition of β-lyase (in words),[7],inhibitor of the β-lyase
same,inhibition of cystsine lyase (in words),cystsine lyase,most inhibitory derivative tested
CC(=O)N[C@@H](CSc1ccc([N+](=O)[O-])cc1Cl)C(=O)O [N-acetyl-S-(2-chloro-4-nitrophenyl)-L-cysteine],inhibition of C-S lyase (in words),rat renal C-S lyase,inhibit
